# In patent US7829688B2, “Peptides of CaV2.2 that inhibit pain” (The Board of Regents of the University of Texas System, priority 2004, dated 2010):
# Ends that are not written are not given here.
# Key:
# [1] = tested on: GST-Mint1-PDZ1/2 protein; assay: HTRF assay of bio-NC peptide association with GST-Mint1-PDZ1/2; type: binding; conditions: 1000 nM with 1000 nM GST-Mint1-PDZ1/2
# [2] = tested on: GST-Mint1-PDZ1/2 protein; assay: ALPHA (AlphaScreen) assay of bio-NC peptide association with GST-Mint1-PDZ1/2; type: binding; conditions: with GST-Mint1-PDZ-1/2, 189 nM concentration
# [3] = tested on: formalin response; assay: Formalin assay in rats after i.v. (tail vein) injection of peptide; type: in vivo; conditions: rat, tail vein injection 1 mM
# Method: FIG. 2—Supression of phase II, but not phase I formalin response in rats injected with R9-QDHWC peptide. The effect of i.v. administration of PBS, R9 (1 mM) or R9-QDHWC (1 mM) on phase I and phase II of the formalin assay. Phase I represents the period from 0-10 min following formalin injection and phase II represents the period from 11-60 min following formalin injection. N=4-7 rats per group. *** indicates a significant difference when compared to PBS injection (p<0.01).
# As is shown in FIG. 2, the peptide R9-QDHWC (full sequence RRRRRRRRRQDHWC; SEQ ID NO_also inhibits phage II but not phase I responses in the rat formalin model. Male Sprague Dawley rats (175-225 gm) received a tail vein injection of either PBS, R9 (1 mM), or R9-QDHWC (1 mM) following which they were placed in a plexiglass observation chamber to allow for acclimation. Thirty minutes following the tail vein injection, the dorsal surface of one hind paw was injected with 50 ul of a 5% formalin solution. Observers, blind to drug treatment, scored the number of biting, licking, and scratching behaviors of the injected hindlimb and paw. Data were analyzed with SigmaStat Software (SPSS, Inc. v. 2.03) using ANOVA followed by a Tukey post hoc analysis.
# [4] = tested on: mature hippocampal neuronal cultures; assay: FM1-43 imaging, double-staining protocol (synaptic function); type: cell-based; conditions: neurons incubated with 50 μM peptide for 15 min; 90 mM KCl stimulation
# Text: FIGS. 3A-D—Effects of R9-QDHWC peptides on synaptic function. Double-staining protocol is shown on the top. Results of first and second destaining are shown for representative puncta for control neurons (FIG. 3A), for neurons loaded with R9 peptide (FIG. 3B) and for neurons loaded with R9-QDHWC peptide (FIG. 3C). An average d2/d1 ratios are compared for all 3 groups of neurons (FIG. 3D).
# An FM1-43 imaging was used to study synaptic effects of R9-QDHWC competitive peptide that corresponds to Mint-PDZ binding site on Cav2.2 subunit. In these experiments we adapted double-staining protocol from (Reuter, 1995). First the mature hippocampal neuronal cultures were stained with FM1-43 dye for 90 sec in the presence of 47 mM KCl (FIG. 3, top). Following staining and washout of the dye (10 min) the neurons were stimulated by 90 mM KCl and the initial rate of destaining (d1) was measured at each puncta (FIG. 3, top). After completion of the first destaining protocol, the same neuronal culture was re-stained with FM1-43 for 90 sec in the presence of 47 mM KCl. […] The initial rate of destaining (d2) was once again measured at each puncta (FIG. 3, top).
# To compare the results obtained during first and second destaining protocols and to minimize puncta-to-puncta variability, the inventors calculated the d2/d1 ratios for each puncta.
# [5] = tested on: formalin response; assay: Formalin assay in mouse, test compound injected into the hindpaw; type: in vivo; conditions: hindpaw injection
# Method: FIGS. 1A & 1B—Supression of phase II, but not phase I formalin response in mouse injected with R9-NC peptide. FIG. 1A. Sequence of R9-NC peptide. FIG. 1B. Results of formalin assay in control mouse (n=8) and mouse injected with R9-NC 60 min prior to formalin injection (n=8). Phase I response (1-10 min from formalin injection) and phase II response (11-60 min from formalin injection) are shown.
# First, animals are injected with a 10 μM (20 μl) solution of the test compound (dissolved in PBS) in the dorsal surface of the hindpaw. One hour following the injection of the test compound, animals receive a formalin injection (20 μl of a 5% solution) into the dorsal surface of the hindpaw. The contralateral paw is not injected. Following injection, animals are immediately transferred to a plexiglass observation cage. Each animal is observed for a total of 60 minutes following formalin injection. The period spent biting, scratching, or licking the injected hindpaw is recorded (pain score). Data is presented as cumulative time spent biting, scratching, and licking in phase I (0-10 min) and phase II (11-60 min).
# One hour following delivery of either saline (control) or R9-NC into the dorsum of the hindpaw, formalin (20 μl of a 5% solution) was injected into the same hindpaw. No effect of R9-NC on phase I of the formalin assay was observed.
compound,measurement,setting,value
O=C(O)CCCC[C@@H]1SC[C@@H]2NC(=O)N[C@@H]21 [Biotin],HTRF ratio,[1],less than 0.04
same,ALPHA signal,[2],"less than 1,500"
"RRRRRRRRR [R9, peptide permeant motif, used as control peptide]",formalin induced phase II behaviors vs PBS,"[3]; 30 min before formalin, phase II 11-60 min",not significantly different
same,average d2/d1 ratio (initial rates of FM1-43 destaining),[4],0.55±0.15
RRRRRRRRRHSYHHPDQDHWC [R9-NC],side effect when injected in the hindpaw,[5],no untoward side effect
"RRRRRRRRRQDHWC [R9-QDHWC, RRRRRRRRRQDHWC]",adverse effects of delivery of the peptide to rats,[3],no apparent adverse effects
